Results published in patent publication US12240859B2, “Turbinmicin compounds, compositions and uses thereof” (Wisconsin Alumni Research Foundation, priority 2019, dated 2025).
Values after ≈ are worked out from the molar mass of the structure shown. Read-outs that look alike come from different tables or passages of the source. *1 amine or outer side, *2 acyl side, *3 side chain or, on linkers, in order; H or OH if unused. Where a SMILES comes first, the peptide text is derived from it. Bridges are numbered along the chain shown (N, C = ends). [ ]: non-standard residue; d: D form. The star is where a group is joined. hTyr(3S-OH,4S-OH,3'-OSO3H) = N[C@H](C(=O)O)[C@H](O)[C@@H](O)c1ccc(O)c(OS(=O)(=O)O)c1; Orn(4R-OH,5R-OH) = O=C([C@H](C[C@@H](O)[C@@H](O)N[*:3])N[*:1])[*:2]; Pro(3S-OH,4S-Me) = C[C@H]1CN[C@H](C(=O)O)[C@H]1O; X1 = CCCCCOc1ccc(-c2cc(-c3ccc(C(=O)*)cc3)no2)cc1; Gln(3R-OH) = NC(=O)C[C@@H](O)[C@H](N)C(=O)O; Hyp = O=C(O)[C@@H]1C[C@@H](O)CN1

Key:
C. auris = experiment: In vitro MIC susceptibility testing, broth microdilution; type: cell-based, Candida auris; parameters: unit: ug/mL
Description: (§1) In vitro MIC susceptibility testing. […]. Amphotericin B was used as a positive control and the MICs range were 0.25-1.5 μg/mL. Six untreated media controls were included on each plate. The plates were incubated at 33° C. for 72 h. The MICs were determined as the lowest concentration that inhibited visible growth. The MICs were read at 24, 48, and 72 hours, respectively. […]

C. albicans = experiment: as above; type: cell-based, Candida albicans
Description: as §1

C. tropicalis = experiment: as above; type: cell-based; conditions: Candida tropicalis, strain 98-234; read-out: MIC
Description: In vitro MIC susceptibility testing. […] The plates were incubated at 33° C. for 72 h. The MICs were determined as the lowest concentration that inhibited visible growth. The MICs were read at 24, 48, and 72 hours, respectively.

Aspergillus fumigatus = experiment: In vitro MIC susceptibility testing; type: cell-based
Description: as §1

C. glabrata = experiment: In vitro MIC susceptibility testing, broth microdilution; type: cell-based, Candida glabrata; conditions: Nakaseomyces glabratus
Description: as §1

[1] = test system: five Candida isolates, C. albicans K-1, C. tropicalis 98-234, C. auris B 11211, C. glabrata 4720, C. albicans SN 250; experiment: In vitro MIC susceptibility testing, positive control over the Candida isolates; type: cell-based; conditions: RPMI medium
Description: as §1

A. fumigatus F11628 = conditions: same Cyp51 mutant A. fumigatus strain, comparison; cited from earlier work
[2] = Candidozyma auris, strain B11104
[3] = Candidozyma auris, strain B11203
[4] = Candidozyma auris, strain B11211, resistant to amphotericin B, fluconazole, micafungin, read-out: MIC
[5] = Candidozyma auris, strain B11219
[6] = Candidozyma auris, strain B11220, read-out: MIC
[7] = Candidozyma auris, strain B11221
[8] = Candidozyma auris, strain B11785, read-out: MIC
[9] = Candidozyma auris, strain B11799, read-out: MIC
[10] = Candidozyma auris, strain B11801, read-out: MIC
[11] = Candidozyma auris, strain B11804, read-out: MIC
[12] = Candida albicans, strain 98-17, read-out: MIC
[13] = Candida albicans, strain 98-210, read-out: MIC
[14] = Candida albicans, strain 580, read-out: MIC
[15] = Candida albicans, strain K1 (K-1), read-out: MIC
[16] = positive controls, A. fumigatus F11628, read-out: MIC

OC(Cn1cncn1)(Cn1cncn1)c1ccc(F)cc1F [Fluconzole, fluconazole]
MIC (C. auris; [2]): > 256 µg/mL | MIC (C. auris; [3]): 256 µg/mL (≈ 836 µM) | MIC (C. auris; [4]): > 256 µg/mL | MIC (C. auris; [5]): > 256 µg/mL | MIC (C. auris; [6]): 4 µg/mL (≈ 13.1 µM) | MIC (C. auris; [7]): 128 µg/mL (≈ 418 µM) | MIC (C. auris; [8]): 8 µg/mL (≈ 26.1 µM) | MIC (C. auris; [9]): 16 µg/mL (≈ 52.2 µM) | MIC (C. auris; [10]): 16 µg/mL (≈ 52.2 µM) | MIC (C. auris; [11]): 2 µg/mL (≈ 6.53 µM) | MIC (C. albicans; [12]): 16 µg/mL (≈ 52.2 µM) | MIC (C. albicans; [13]): 16 µg/mL (≈ 52.2 µM) | MIC (C. albicans; [14]): 4 µg/mL (≈ 13.1 µM) | MIC (C. albicans; [15]): 0.5 µg/mL (≈ 1.63 µM) | MIC (C. tropicalis): 32 µg/mL (≈ 104 µM)

C[C@@H](c1nc(-c2ccc(C#N)cc2)cs1)[C@](O)(Cn1cncn1)c1cc(F)ccc1F [Isavuconazole]
MIC (Aspergillus fumigatus; [16]): 8 µg/mL (≈ 18.3 µM)

CCCCCOc1ccc(-c2cc(-c3ccc(C(=O)N[C@H]4C[C@@H](O)[C@@H](O)NC(=O)[C@@H]5[C@@H](O)[C@@H](C)CN5C(=O)[C@H]([C@H](O)CC(N)=O)NC(=O)[C@H]([C@H](O)[C@@H](O)c5ccc(O)c(OS(=O)(=O)O)c5)NC(=O)[C@@H]5C[C@@H](O)CN5C(=O)[C@H]([C@@H](C)O)NC4=O)cc3)no2)cc1 [Micafungin, micafungin] (X1-[Orn(4R-OH,5R-OH)]T[Hyp][hTyr(3S-OH,4S-OH,3'-OSO3H)][Gln(3R-OH)][Pro(3S-OH,4S-Me)]; lactam 1-C)
MIC (C. auris; [2]): 0.25 µg/mL (≈ 0.197 µM) | MIC (C. auris; [3]): 0.25 µg/mL (≈ 0.197 µM) | MIC (C. auris; Candidozyma auris, strain B11211, resistant to amphotericin B, fluconazole, micafungin): 4 µg/mL (≈ 3.15 µM) | MIC (C. auris; [5]): 4 µg/mL (≈ 3.15 µM) | MIC (C. auris; Candidozyma auris, strain B11220): 0.12 µg/mL (≈ 0.0945 µM) | MIC (C. auris; [7]): 1 µg/mL (≈ 0.787 µM) | MIC (C. auris; Candidozyma auris, strain B11785): 0.5 µg/mL (≈ 0.394 µM) | MIC (C. auris; Candidozyma auris, strain B11799): 2 µg/mL (≈ 1.57 µM) | MIC (C. auris; Candidozyma auris, strain B11801): 1 µg/mL (≈ 0.787 µM) | MIC (C. auris; Candidozyma auris, strain B11804): 0.5 µg/mL (≈ 0.394 µM) | MIC (C. albicans; Candida albicans, strain 98-17): 0.06 µg/mL (≈ 0.0472 µM) | MIC (C. albicans; Candida albicans, strain 98-210): 0.03 µg/mL (≈ 0.0236 µM) | MIC (C. albicans; Candida albicans, strain 580): 0.016 µg/mL (≈ 0.0126 µM) | MIC (C. albicans; Candida albicans, strain K1 (K-1)): 0.03 µg/mL (≈ 0.0236 µM) | MIC (C. glabrata; strain 513): 0.016 µg/mL (≈ 0.0126 µM) | MIC (C. glabrata; strain 729, Fks2_HS1_S663P): 8 µg/mL (≈ 6.3 µM) | MIC (C. glabrata; strain 4720, Fks2_HS1_S645P, echinocandin resistant): 4 µg/mL (≈ 3.15 µM) | MIC (C. glabrata; strain 5592): 0.016 µg/mL (≈ 0.0126 µM) | MIC (C. glabrata; strain 14378, Fks1_HS1_S629P): 2 µg/mL (≈ 1.57 µM)

C[C@@H]1[C@H](O)[C@@H](C)/C=C/C=C/C=C/C=C/C=C/C=C/C=C/[C@H](O[C@@H]2O[C@H](C)[C@@H](O)[C@H](N)[C@@H]2O)C[C@@H]2O[C@](O)(C[C@@H](O)C[C@@H](O)[C@H](O)CC[C@@H](O)C[C@@H](O)CC(=O)O[C@H]1C)C[C@H](O)[C@H]2C(=O)O [Amphotericin B]
MIC (C. auris; strain B11104): 1 µg/mL (≈ 1.08 µM) | MIC (C. auris; strain B11203): 4 µg/mL (≈ 4.33 µM) | MIC (C. auris; strain B11211, resistant to amphotericin B, fluconazole, micafungin): 1.5 µg/mL (≈ 1.62 µM) | MIC (C. auris; strain B11219): 3 µg/mL (≈ 3.25 µM) | MIC (C. auris; strain B11220): 0.38 µg/mL (≈ 0.411 µM) | MIC (C. auris; strain B11221): 0.38 µg/mL (≈ 0.411 µM) | MIC (C. auris; strain B11785): 1.5 µg/mL (≈ 1.62 µM) | MIC (C. auris; strain B11799): 0.5 µg/mL (≈ 0.541 µM) | MIC (C. auris; strain B11801): 6 µg/mL (≈ 6.49 µM) | MIC (C. auris; strain B11804): 0.5 µg/mL (≈ 0.541 µM) | MIC (C. albicans; strain 98-17): 0.25 µg/mL (≈ 0.271 µM) | MIC (C. albicans; strain K1 (K-1)): 0.25 µg/mL (≈ 0.271 µM) | MICs range [1]: 0.25 to 1.5 µg/mL

CC[C@@H]([C@H](C)O)n1ncn(-c2ccc(N3CCN(c4ccc(OC[C@@H]5CO[C@@](Cn6cncn6)(c6ccc(F)cc6F)C5)cc4)CC3)cc2)c1=O [Posaconazole, posaconazole]
MIC (C. auris; Candidozyma auris, strain B11104, read-out: MIC): 0.5 µg/mL (≈ 0.713 µM) | MIC (C. auris; Candidozyma auris, strain B11203, read-out: MIC): 0.12 µg/mL (≈ 0.171 µM) | MIC (C. auris; [4]): 0.5 µg/mL (≈ 0.713 µM) | MIC (C. auris; Candidozyma auris, strain B11219, read-out: MIC): 0.5 µg/mL (≈ 0.713 µM) | MIC (C. auris; [6]): 0.06 µg/mL (≈ 0.0856 µM) | MIC (C. auris; Candidozyma auris, strain B11221, read-out: MIC): 0.5 µg/mL (≈ 0.713 µM) | MIC (C. auris; [8]): 0.016 µg/mL (≈ 0.0228 µM) | MIC (C. auris; [9]): 0.06 µg/mL (≈ 0.0856 µM) | MIC (C. auris; [10]): 0.12 µg/mL (≈ 0.171 µM) | MIC (C. auris; [11]): 0.03 µg/mL (≈ 0.0428 µM) | MIC (Aspergillus fumigatus; [16]): 8 µg/mL (≈ 11.4 µM) | MIC (Aspergillus fumigatus; strain 293, read-out: MIC): 0.5 µg/mL (≈ 0.713 µM) | MIC (Aspergillus fumigatus; strain F14532, Cyp51 M220T): 1 µg/mL (≈ 1.43 µM) | MIC (Aspergillus fumigatus; strain F16216, Cyp51 L98H + TR): 2 µg/mL | MIC (C. albicans; [12]): 0.12 µg/mL (≈ 0.171 µM) | MIC (C. albicans; [13]): 0.12 µg/mL (≈ 0.171 µM) | MIC (C. albicans; [14]): 0.06 µg/mL (≈ 0.0856 µM) | MIC (C. albicans; [15]): 0.03 µg/mL (≈ 0.0428 µM) | dose required to achieve 1-log kill (A. fumigatus F11628): 150 mg/kg/24 h
